Results: ChEMBL document CHEMBL1146714, “Peptidyl hydroxamic acids as methionine aminopeptidase inhibitors” (Bioorg Med Chem Lett, 2004)

What was measured:
[1] = Inhibitory activity against methionine Escherichia coli aminopeptidase (MetAP)
[2] = target: Methionine aminopeptidase 2 (Homo sapiens, UniProt P50579); assay: Inhibitory activity against Methionine aminopeptidase 2
Sequence of Methionine aminopeptidase 2 (P50579 whole entry): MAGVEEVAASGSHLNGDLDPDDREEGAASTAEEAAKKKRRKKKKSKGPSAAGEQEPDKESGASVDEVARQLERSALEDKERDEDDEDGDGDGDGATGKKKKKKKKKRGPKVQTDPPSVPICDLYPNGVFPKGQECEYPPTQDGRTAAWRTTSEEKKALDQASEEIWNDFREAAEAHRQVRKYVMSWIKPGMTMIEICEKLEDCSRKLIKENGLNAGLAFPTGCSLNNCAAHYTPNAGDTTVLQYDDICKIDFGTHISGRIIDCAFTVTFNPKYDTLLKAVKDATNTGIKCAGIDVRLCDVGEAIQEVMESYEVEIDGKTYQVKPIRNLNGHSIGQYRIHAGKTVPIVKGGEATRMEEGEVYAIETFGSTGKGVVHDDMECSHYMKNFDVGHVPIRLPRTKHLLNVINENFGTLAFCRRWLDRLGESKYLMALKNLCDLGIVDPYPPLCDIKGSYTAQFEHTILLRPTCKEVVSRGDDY

| Structure (SMILES) | Ki [1] [µM] | Ki [2] [µM] |
| --- | --- | --- |
| CCCC[C@H](N)C(=O)N(O)CCC(=O)NCCc1ccccn1 | 48 |  |
| C[C@@H](N)C(=O)N(O)CC(=O)O | 8.8 | 600 |
| CSCC[C@H](N)C(=O)N(O)CC(=O)NCCc1ccccn1 | 2.5 |  |
| CCCC[C@H](N)C(=O)N(O)CC(=O)NCCc1ccccn1 | 59 | 164 |
| CSCC[C@H](N)C(=O)N(O)CC(=O)O | 170 | 1300 |
